From patent US20230277524A1, “COMBINATION THERAPY FOR TREATMENT OF VIRAL INFECTIONS” (priority 2020, published 2023)
Entries after “also recorded” stand apart in the source; their conditions may differ. Like-named read-outs stand apart in the source and are kept apart here.

Columns and labels:
[1] = tested on: SARS-CoV-2 virus; format: cell-based
[2] = tested on: VERO-EGFP cells
[3] = tested on: SARS-CoV-2 virus; test: microbe, parasite or virus in culture; format: cell-based
[4] = tested on: SARS-CoV-2 virus; test: microbe, parasite or virus in culture; format: cell-based; conditions: Severe acute respiratory syndrome coronavirus 2, 72 h; Vero E6-WT cells, three days post-infection; read-out: EC50 for % inhibition of virus-induced CPE
[5] = tested on: SARS-CoV-2; test: Cell-based antiviral assay (CPE, MTS) in Huh7 cells; conditions: Huh7, 0.0062 μM concentration level, 4 days post-infection
[6] = tested on: ABCB1; conditions: low-nM dual-specificity ABCB1/ABCG2 inhibitor; cited from earlier work
[7] = plate 3, 12 drugs, 250 nM, day 4, MLR model (FIG. 2)
[8] = 250 nM, day 4 (FIG. 3, P3 TOX 250 nM)

OC(c1cc(C(F)(F)F)nc2c(C(F)(F)F)cccc12)C1CCCCN1 (centres unmarked) [mefloquine]
enhancement of / effect on the REC combination [1]: all failed to enhance the REC combination | individual antiviral efficacy against SARS-CoV2 [1]: did not provide evidence for efficacy

CC(C)c1nc(CN(C)C(=O)N[C@H](C(=O)N[C@@H](Cc2ccccc2)C[C@H](O)[C@H](Cc2ccccc2)NC(=O)OCc2cncs2)C(C)C)cs1 [ritonavir]
individual antiviral efficacy against SARS-CoV2 [1]: did not provide evidence for efficacy

CCOC/C=C/c1ccc(-c2nc(-c3ccc(NC(C)C)cc3)c(-c3ccc(NC(C)C)cc3)[nH]2)cc1 [ONT-093]
substitution / complementation for elacridar in the REC combination [1]: failed to complement

Z-VAD
enhancement of / effect on the REC combination [1]: none of the compounds synergized with the REC combination

Cc1nc(-c2ccc(OCC(C)C)c(C#N)c2)sc1C(=O)O [febuxostat]
substitution / complementation for elacridar in the REC combination [1]: cannot substitute for elacridar; also recorded: failed to complement

N#C[C@@]1(c2ccc3c(N)ncnn23)O[C@H](CO)[C@@H](O)[C@H]1O [GS441524]
individual antiviral efficacy against SARS-CoV2 [1]: smaller, yet significant, antiviral effect | substitution for remdesivir in the REC combination [1]: did not replace remdesivir in the REC combination; also recorded: failed to substitute for remdesivir | criticality when optimized for maximal cytopathic effect ([1]; system optimization): failed to demonstrate criticality

CN1CC[C@H](c2c(O)cc(O)c3c(=O)cc(-c4ccccc4Cl)oc23)[C@H](O)C1 [flavopiridol]
interaction terms / synergism in antiviral response [1]: did not interact significantly with the other three compounds | antiviral response (survival of the cells in response to the SARS-CoV-2 virus) [1, 7]: antiviral response was demonstrated | toxicology (cytotoxicity without virus) [2]: cytotoxic | toxicology (cell viability without virus) [2, 8]: highly toxic to the Vero-EGFP cells | toxicology (cell viability without virus) ([2]; 250 nM, day 4 (FIG. 3, P3 TOX 250 nM), listed as Flavopiridol): individually caused cell death

Nc1ncnc2c([C@@H]3N[C@H](CO)[C@@H](O)[C@H]3O)c[nH]c12 [galidesivir]
contribution factor to the effect of the REC combination [1]: 9.6

Cc1cc(C)c(Nc2ccnc(Nc3ccc(C#N)cc3)n2)c(C)c1 [dapivirine]
enhancement of / effect on the REC combination [1]: all failed to enhance the REC combination

[Zn] [zinc]
enhancement of / effect on the REC combination [1]: failed to enhance the REC combination

COc1ccc2c3c([nH]c2c1)[C@H](CC(C)C)N1C(=O)[C@H](CCC(=O)OC(C)(C)C)NC(=O)[C@@H]1C3 [Ko143]
substitution / complementation for elacridar in the REC combination ([1]; focus testing, REC combination at 250 nM (FIGS. 11, 12, 17)): failed to complement for elacridar | substitution / complementation for elacridar in the REC combination ([1]; focus testing, REC combination at 250 nM (FIGS. 11, 12, 17), listed as K0143): cannot substitute for elacridar

Cc1cccc(C)c1OCC(=O)N[C@@H](Cc1ccccc1)[C@@H](O)C[C@H](Cc1ccccc1)NC(=O)[C@H](C(C)C)N1CCCNC1=O [lopinavir]
individual antiviral efficacy against SARS-CoV2 [1]: did not provide evidence for efficacy

CCCCC1=NC2(CCCC2)C(=O)N1Cc1ccc(-c2ccccc2-c2nnn[nH]2)cc1 [irbesartan]
individual antiviral efficacy against SARS-CoV2 [1]: did not provide evidence for efficacy | antiviral response (survival of the cells in response to the SARS-CoV-2 virus) [1, 7]: negatively impacted the survival of the cells

C=C1CC[C@H](O)C/C1=C/C=C1\CCC[C@]2(C)[C@@H]([C@H](C)CCCC(C)C)CC[C@@H]12 [vit-D3]
enhancement of / effect on the REC combination [1]: failed to enhance the REC combination

Cc1c(O)cccc1C(=O)N[C@@H](CSc1ccccc1)[C@H](O)CN1C[C@H]2CCCC[C@H]2C[C@H]1C(=O)NC(C)(C)C [nelfinavir]
enhancement of / effect on the REC combination [1]: all failed to enhance the REC combination

ivermectin
enhancement of / effect on the REC combination [1]: unable to enhance the REC combination | individual antiviral efficacy against SARS-CoV2 [1]: individual, but limited potency

NC(=O)c1nc(F)c[nH]c1=O [favipiravir]
enhancement of / effect on the REC combination [1]: had no effect on the efficacy of the remdesivir, elacridar, and curcumin combination | individual antiviral efficacy against SARS-CoV2 [1]: failed to emerge as efficacious | substitution for remdesivir in the REC combination [1]: none were able to substitute for remdesivir

CN(C)C(=O)COC(=O)Cc1ccc(OC(=O)c2ccc(NC(=N)N)cc2)cc1 [camostat]
individual antiviral efficacy against SARS-CoV2 [1]: did not provide evidence for efficacy | antiviral response (survival of the cells in response to the SARS-CoV-2 virus) [1, 7]: negatively impacted the survival of the cells

COc1cc2c(cc1OC)CN(CCc1ccc(NC(=O)c3cccc4c(=O)c5cccc(OC)c5[nH]c34)cc1)CC2 [elacridar]
EC50 ([3]; Severe acute respiratory syndrome coronavirus 2, 72 h, Vero E6-GFP cells, three days post-infection, read-out: EC50 for % inhibition of virus-induced CPE): 2160 ± 500 nM | EC50 [4]: 1070 ± 500 nM | antiviral response (survival of the cells in response to the SARS-CoV-2 virus) [1, 7]: antiviral response was demonstrated | toxicology (cell viability without virus) [2, 8]: none of the three drugs in the triad of remdesivir, elacridar, and curcumin negatively impacted cell viability

Cc1sc2c(c1C)C(c1ccc(Cl)cc1)=N[C@@H](CC(=O)OC(C)(C)C)c1nnc(C)n1-2 [JQ-1]
enhancement of / effect on the REC combination [1]: none of the compounds synergized with the REC combination

CCN(CCO)CCCC(C)Nc1ccnc2cc(Cl)ccc12 (centres unmarked) [hydroxychloroquine]
enhancement of / effect on the REC combination [1]: all failed to enhance the REC combination | individual antiviral efficacy against SARS-CoV2 [1]: failed to emerge as efficacious

O=c1nc(NO)ccn1[C@@H]1O[C@H](CO)[C@@H](O)[C@H]1O [EIDD-1931]
enhancement of / effect on the REC combination [1]: had no effect on the REC combination | substitution for remdesivir in the REC combination ([1]; focus testing (FIGS. 13-18)): failed to substitute for remdesivir | substitution for remdesivir in the REC combination ([1]; focus testing (FIGS. 13-18), listed as EIDD1931): none were able to substitute for remdesivir | individual antiviral efficacy against SARS-CoV2 ([1]; listed as EIDD1): does not exert an antiviral effect | individual antiviral efficacy against SARS-CoV2 ([1]; listed as EIDD1931): did not provide evidence for efficacy

O=c1c(O)c(-c2ccc(O)c(O)c2)oc2cc(O)cc(O)c12 [Quercetin]
substitution / complementation for elacridar in the REC combination [1]: failed to complement for elacridar

CC(=O)N[C@@H](CS)C(=O)O [N-acetyl cysteine]
complementing the REC combination or substituting for curcumin [1]: failed to complement the REC combination, or substitute for curcumin

Nc1nc(Nc2ccc3c(c2)CCC(N2CCCC2)CC3)nn1-c1cc2c(nn1)-c1ccccc1CCC2 (centres unmarked) [R428]
enhancement of / effect on the REC combination [1]: all failed to enhance the REC combination

C[C@H]1CCC/C=C/[C@@H]2C[C@H](O)C[C@H]2[C@H](O)/C=C/C(=O)O1 [BrefA, Brefeldin A]
toxicity (loss of fluorescence intensity, cell loss) ([2]; twelve-drug plate, scanned 4 days later (FIG. 10)): cytotoxic and the cause of the observed cell loss

CCC(CC)COC(=O)[C@H](C)N[P@](=O)(OC[C@H]1O[C@@](C#N)(c2ccc3c(N)ncnn23)[C@H](O)[C@@H]1O)Oc1ccccc1 [remdesivir]
inhibition of virus-induced cytopathic effect ([3]; Vero E6-GFP, 1.11 μM): 50-60% | cytopathic effect of the virus at one concentration [5]: minimally protected | antiviral response (survival of the cells in response to the SARS-CoV-2 virus) [1]: antiviral response was demonstrated | toxicology (cell viability without virus) [2]: none of the three drugs in the triad of remdesivir, elacridar, and curcumin negatively impacted cell viability | toxicology (cytotoxicity without virus) [2]: no cytotoxicity

CC(C)C(=O)OC[C@H]1O[C@@H](n2cc/c(=N\O)[nH]c2=O)[C@H](O)[C@@H]1O [EIDD-2801]
substitution for remdesivir in the REC combination [1]: failed as a substitute for remdesivir; also recorded: none were able to substitute for remdesivir

Cc1c(O)c(=O)ccn1C [Deferiprone]
complementing the REC combination or substituting for curcumin [1]: failed to complement the REC combination or substitute for curcumin

CC(N)C12CC3CC(CC(C3)C1)C2 (centres unmarked) [rimantadine]
individual antiviral efficacy against SARS-CoV2 [1]: did not provide evidence for efficacy

CC(C)[C@H](NC(=O)c1ccc2ccccc2n1)C(=O)N[C@@H](CC(=O)O)C(=O)COc1c(F)cccc1F [Q-VD-Oph]
enhancement of / effect on the REC combination [1]: none of the compounds synergized with the REC combination

COc1cc2c(cc1OC)CN(CCc1ccc(NC(=O)c3cc(OC)c(OC)cc3NC(=O)c3cnc4ccccc4c3)cc1)CC2 [tariquidar]
antiviral potency in synergizing with remdesivir (interaction terms) [1]: equally potent in synergizing with remdesivir | substitution / complementation for elacridar in the REC combination [1]: can be substituted for elacridar | ABCB1 inhibitory potency [6]: 5.1 nM
